Earlier results on one molecule are cited in paper PMC11165342 (Asian Journal of Pharmaceutical Sciences, 2024).

Take `CC(C(=O)O)c1ccc(-c2ccccc2)c(F)c1` (stereo not shown) [FB, Flurbiprofen]: the pKa was 3.5–4.5.
